# Reference: patent US9255100B2 (BAYER INTELLECTUAL PROPERTY GMBH, priority 2010, dated 2016)
# Target: T1, N-terminally GST-tagged human full length recombinant Mps-1 kinase (Homo sapiens, UniProt P33981)
# T1 construct: N-terminally GST-tagged human full length recombinant Mps-1 kinase; purchased Invitrogen, Karslruhe, Germany PV4071
# T1 sequence (P33981 1-857): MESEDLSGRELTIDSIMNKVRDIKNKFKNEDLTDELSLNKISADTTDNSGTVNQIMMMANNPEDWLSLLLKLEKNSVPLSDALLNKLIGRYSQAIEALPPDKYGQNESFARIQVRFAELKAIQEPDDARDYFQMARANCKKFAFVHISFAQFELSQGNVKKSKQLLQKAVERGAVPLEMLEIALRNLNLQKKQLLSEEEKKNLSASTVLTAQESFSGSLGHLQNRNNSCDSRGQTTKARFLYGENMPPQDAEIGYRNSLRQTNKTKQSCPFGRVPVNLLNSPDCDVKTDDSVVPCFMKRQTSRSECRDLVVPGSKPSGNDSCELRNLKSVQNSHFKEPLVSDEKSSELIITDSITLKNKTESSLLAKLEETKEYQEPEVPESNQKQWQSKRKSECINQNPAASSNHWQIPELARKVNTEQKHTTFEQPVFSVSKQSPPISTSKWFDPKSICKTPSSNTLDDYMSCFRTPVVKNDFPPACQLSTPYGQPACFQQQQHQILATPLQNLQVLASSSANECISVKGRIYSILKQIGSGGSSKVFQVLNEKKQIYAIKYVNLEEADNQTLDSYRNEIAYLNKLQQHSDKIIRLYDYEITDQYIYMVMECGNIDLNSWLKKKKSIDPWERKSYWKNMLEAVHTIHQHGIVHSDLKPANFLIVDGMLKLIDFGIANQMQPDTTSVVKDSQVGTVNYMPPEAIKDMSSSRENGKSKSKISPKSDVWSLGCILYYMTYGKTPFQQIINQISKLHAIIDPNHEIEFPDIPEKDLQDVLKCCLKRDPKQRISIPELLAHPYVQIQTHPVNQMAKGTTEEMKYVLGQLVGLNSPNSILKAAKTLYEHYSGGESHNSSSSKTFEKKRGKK
# Assay: Mps-1 kinase assay (TR-FRET)
# Format: biochemical
# Details: Mps1 IC50 [nM], 10 μM ATP, 1 μM peptide substrate, 60 min at 22° C.
# Procedure, shortened: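 GST-Mps-1 (full length, N-term tag) ~1 nM final, linear-range adjusted per lot; biotinylated peptide substrate. Detection: Eu-anti-pSer/Thr donor → SA-XLent acceptor TR-FRET, 1 h, 22° C. Inhibition of kinase activity.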
row,SMILES,IC50 [nM]
1,"CC(C)CNc1cc(-c2ccc(C(=O)NC(C)C)cc2)nn2c(-c3ccc(C(=O)NC4CC4)cc3)cnc12 [Example 120, 4-{3-[4-(Cyclopropylcarbamoyl)phenyl]-8-[(2-methylpropyl)amino]imidazo[1,2-b]pyridazin-6-yl}-N-(propan-2-yl)benzamide]",2.5
2,"CNC(=O)c1ccc(-c2cnc3c(NCC4CCOCC4)cc(Oc4ccc(OC)cc4)nn23)cc1C [Example 570, 4-{6-(4-methoxyphenoxy)-8-[(tetrahydro-2H-pyran-4-ylmethyl)amino]imidazo[1,2-b]pyridazin-3-yl}-N,2-dimethylbenzamide]",< 1
3,"Cc1cc(-c2cnc3c(NCC(C)(C)O)cc(-c4cnn(C)c4)nn23)ccc1C(=O)NC1CC1 [Example 154, N-cyclopropyl-4-{8-[(2-hydroxy-2-methylpropyl)amino]-6-(1-methyl-1H-pyrazol-4-yl)imidazo[1,2-b]pyridazin-3-yl}-2-methylbenzamide]",25
4,"Cc1cc(-c2cnc3c(NCC(C)(C)O)cc(Sc4ccccc4)nn23)ccc1C(=O)NC1CC1 [Example 214, N-cyclopropyl-4-{8-[(2-hydroxy-2-methylpropyl)amino]-6-(phenylsulfanyl)imidazo[1,2-b]pyridazin-3-yl}-2-methylbenzamide]",< 1
5,"Cc1cc(-c2cnc3c(NCC(C)(C)O)cc(Sc4ccncc4)nn23)ccc1C(=O)NC1CC1 [Example 333, N-cyclopropl-4-{8-[(2-hydroxy-2-methylpropyl)amino]-6-(pyridin-4-yl-sulfanyl)imidazo[1,2-b]pyridazin-3-yl}-2-methyl-benzamide]",9.5
6,"FC(F)(F)CCNc1cc(-c2ccncc2)nn2c(-c3ccc(-c4cnc(C5CC5)[nH]4)cc3)cnc12 [Example 26, 3-[4-(2-Cyclopropyl-1H-imidazol-5-yl)phenyl]-6-(pyridin-4-yl)-N-(3,3,3-trifluoropropyl)imidazo[1,2-b]pyridazin-8-amine]",4.1
7,"Cc1cc(-c2cnc3c(NCCN4CCOCC4)cc(N(C)c4ccccc4O)nn23)ccc1C(=O)NC1CC1 [Example 539, N-cyclopropyl-4-(6-[(2-hydroxy-phenyl)(methyl)amino]-8-{[2-(morpholin-4-yl)ethyl]amino}imidazo[1,2-b]pyridazin-3-yl)-2-methylbenzamide]",0.2
8,"CC(C)CNc1cc(-c2cc3ccccc3o2)nn2c(-c3ccc(C(=O)NC4CC4)cc3)cnc12 [Example 127, 4-{6-(1-Benzofuran-2-yl)-8-[(2-methylpropyl)amino]imidazo[1,2-b]pyridazin-3-yl}-N-cyclopropylbenzamide]",40
9,"Cc1cc(F)cc(Sc2cc(NCC(C)(C)O)c3ncc(-c4ccc(C(=O)NC5CC5)c(C)c4)n3n2)c1 [Example 67, N-cyclopropyl-4-{6-[(3-fluoro-5-methylphenyl)sulfanyl]-8-[(2-hydroxy-2-methylpropyl)amino]imidazo[1,2-b]pyridazin-3-yl}-2-methylbenzamide]",0.1
10,"c1cc(-c2cc(NCC3CCCCO3)c3ncc(-c4ccc(-c5cnc(C6CC6)[nH]5)cc4)n3n2)ccn1 (racemic) [Example 29, (RS) 3-[4-(2-Cyclopropyl-1H-imidazol-5-yl)phenyl]-6-(pyridin-4-yl)-N-(tetrahydro-2H-pyran-2-ylmethyl)imidazo[1,2-b]pyridazin-8-amine]",80.2
11,"Cc1cc(-c2cnc3c(NCC(C)(C)O)cc(Nc4ccc(Cl)cc4F)nn23)ccc1C(=O)NC1CC1 [Example 348, 4-{6-[(4-chloro-2-fluorophenyl)amino]-8-[(2-hydroxy-2-methylpropyl)amino]imidazo[1,2-b]pyridazin-3-yl}-N-cyclopropyl-2-methylbenzamide]",1.5
12,"Cc1cc(-c2cnc3c(NCC(C)(C)O)cc(C4=CCNCC4)nn23)ccc1C(=O)NC1CC1 [Example 42, N-cyclopropyl-4-{8-[(2-hydroxy-2-methylpropyl)amino]-6-(1,2,3,6-tetrahydropyridin-4-yl)imidazo[1,2-b]pyridazin-3-yl}-2-methylbenzamide]",7.8
13,"Cc1nnc(-c2ccc(-c3cc(NCC(C)C)c4ncc(-c5ccc(C(=O)NC6CC6)cc5)n4n3)cc2)o1 [Example 148, N-cyclopropyl-4-{6-[4-(5-methyl-1,3,4-oxadiazol-2-yl)phenyl]-8-[(2-methylpropyl)amino]imidazo[1,2-b]pyridazin-3-yl}benzamide]",1.5

# Continued, values first:
row,IC50 [nM],SMILES
1,0.6,"Cc1cc(-c2cnc3c(NCC(C)(C)O)cc(Nc4ccc(F)cc4F)nn23)ccc1C(=O)NC1CC1 [Example 356, N-cyclopropyl-4-{6-[(2,4-difluorophenyl)amino]-8-[(2-hydroxy-2-methylpropyl)amino]imidazo[1,2-b]pyridazin-3-yl}-2-methylbenzamide]"
2,0.4,"COc1ccccc1Nc1cc(NCCC(F)(F)F)c2ncc(-c3ccc(C(=O)NC4CC4)c(C)c3)n2n1 [Example 388, N-cyclopropyl-4-{6-[(2-methoxyphenyl)amino]-8-[(3,3,3-trifluoropropyl)amino]imidazo[1,2-b]pyridazin-3-yl}-2-methylbenzamide]"
3,0.1,"Cc1cc(-c2cnc3c(NCCC#N)cc(Oc4cccc(F)c4)nn23)ccc1C(=O)NC1CC1 [Example 347, 4-{8-[(2-cyanoethyl)amino]-6-(3-fluorophenoxy)imidazo[1,2-b]pyridazin-3-yl}-N-cyclopropyl-2-methylbenzamide]"
4,0.1,"Cc1ccc(F)c(Nc2cc(NCCC(F)(F)F)c3ncc(-c4ccc(C(=O)NC5CC5)c(C)c4)n3n2)c1 [Example 367, N-cyclopropyl-4-{6-[(2-fluoro-5-methylphenyl)amino]-8-[(3,3,3-trifluoropropyl)amino]imidazo[1,2-b]pyridazin-3-yl}-2-methylbenzamide]"
5,< 1,"CNC(=O)c1ccc(-c2cnc3c(NCC4CCOCC4)cc(Oc4cc(F)ccc4C)nn23)cc1C [Example 572, 4-{6-(5-fluoro-2-methylphenoxy)-8-[(tetrahydro-2H-pyran-4-ylmethyl)amino]imidazo[1,2-b]pyridazin-3-yl}-N,2-dimethylbenzamide]"
6,0.1,"Cc1cc(-c2cnc3c(NCC(C)(C)O)cc(Oc4ccc(F)c(F)c4)nn23)ccc1C(=O)NC1CC1 [Example 254, N-cyclopropyl-4-{6-(3,4-difluorophenoxy)-8-[(2-hydroxy-2-methylpropyl)amino]imidazo[1,2-b]pyridazin-3-yl}-2-methylbenzamide]"
7,10.6,"Cc1cc(-c2cnc3c(NCCC(C)(C)O)cc(-c4ccccc4CO)nn23)ccc1C(=O)NC1CC1 [Example 341, N-cyclopropyl-4-{8-[(3-hydroxy-3-methylbutyl)amino]-6-[2-(hydroxy-methyl)phenyl]imidazo[1,2-b]pyridazin-3-yl}-2-methylbenzamide]"
8,4.8,"Cc1cc(-c2cnc3c(NCC(C)(C)O)cc(Oc4cncc(C(N)=O)c4)nn23)ccc1C(=O)NC1CC1 [Example 411, 5-({3-[4-(cyclopropylcarbamoyl)-3-methylphenyl]-8-[(2-hydroxy-2-methylpropyl)amino]imidazo[1,2-b]pyridazin-6-yl}oxy)nicotinamide]"
9,0.2,"Cc1cc(-c2cnc3c(NCCCCN(C)C)cc(Oc4cccc(F)c4)nn23)ccc1C(=O)NC1CC1 [Example 513, N-cyclopropyl-4-[8-{[4-(dimethyl-amino)butyl]amino}-6-(3-fluoro-phenoxy)imidazo[1,2-b]pyridazin-3-yl]-2-methylbenzamide]"
10,32.5,"Cc1cc(-c2cnc3c(NCC(C)(C)N)cc(-c4ccccc4CO)nn23)ccc1C(=O)NC1CC1 [Example 59, 4-{8-[(2-Amino-2-methylpropyl)amino]-6-[2-(hydroxymethyl)phenyl]imidazo[1,2-b]pyridazin-3-yl}-N-cyclopropyl-2-methylbenzamide]"
11,0.2,"Cc1cc(-c2cnc3c(NCCC(F)(F)F)cc(Sc4ccccc4F)nn23)ccc1C(=O)NC1CC1 [Example 268, N-cyclopropyl-4-{6-[(2-fluorophenyl)sulfanyl]-8-[(3,3,3-trifluoropropyl)amino]imidazo[1,2-b]pyridazin-3-yl}-2-methylbenzamide]"
12,0.1,"Cc1ccc(F)cc1Sc1cc(NCC(C)(C)O)c2ncc(-c3ccc(C(=O)NC4CC4)c(C)c3)n2n1 [Example 64, N-cyclopropyl-4-{6-[(5-fluoro-2-methylphenyl)sulfanyl]-8-[(2-hydroxy-2-methylpropyl)amino]imidazo[1,2-b]pyridazin-3-yl}-2-methylbenzamide]"
13,1,"CCNC(=O)c1ccc(-c2cnc3c(NCC4CCOCC4)cc(Oc4cc(F)ccc4C)nn23)cc1C [Example 599, N-ethyl-4-{6-(5-fluoro-2-methylphenoxy)-8-[(tetrahydro-2H-pyran-4-ylmethyl)a-mino]imidazo[1,2-b]pyridazin-3-yl}-2-methylbenzamide]"
